Bounds are passed on as bounds.

Here are results for 2 substances from publication PMC12649225, “Machine Learning-Identified Potent Antimicrobial Peptides Against Multidrug-Resistant Bacteria and Skin Infections” (Antibiotics, 2025).

The test system of one assay is E. cloacae LUH15114. In kind it is cell-based. How it is done: (§1) The bacterial strains used in this study included S. aureus JAR060131 [54] and the MDR ESKAPE pathogens Enterococcus faecium LUH15122, S. aureus LUH14616, Klebsiella pneumoniae LUH15104, A. baumannii RUH875 [55], Pseudomonas aeruginosa LUH15103, Enterobacter cloacae LUH15114, and the colistin-resistant Escherichia coli LUH15117. Before each experiment, bacteria from frozen stocks were cultured at 37 °C for 18–24 h on sheep blood agar plates (BioMérieux, Marcy-l’Étoile, France). All strains were then cultured from colonies either in tryptic soy broth (TSB; Oxoid, Basingstoke, UK) for A. baumannii, S. aureus, and E. faecium, or in brain heart infusion broth (BHI; Oxoid) for K. pneumoniae, P. aeruginosa, E. cloacae, and E. coli at 37 °C with shaking at 120 rpm for 18–24 h. Subsequently, bacteria were cultured to mid-logarithmic phase in the media described above at 37 °C with shaking at 120 rpm for 3 h. Bacteria were then washed twice with PBS and diluted to the required inoculum suspension concentration in Roswell Park Memorial Institute (RPMI)-1640 medium containing 20 mM HEPES and L-glutamine but without sodium bicarbonate (Sigma-Aldrich; hereafter referred to as RPMI), based on optical density at 620 nm. RPMI was selected because it supports bacterial growth without impairing AMP activity.
(§2) Bactericidal activity was assessed as described by de Breij et al.. Briefly, mid-logarithmic phase bacterial cultures were diluted to a final concentration of 1 × 10^7 colony-forming units (CFU)/mL in RPMI. Then, 10 µL was added to a final volume of 100 µL in RPMI (final concentration: 1 × 10^6 CFU/mL). Cultures were exposed to peptides either in RPMI or RPMI supplemented with 50% (v/v) human plasma (hereafter referred to as 50% plasma), obtained from four healthy volunteers after informed consent, frozen after collection, and pooled (Sanquin, Amsterdam, The Netherlands). Assays were performed in duplicate using round-bottom polypropylene microtiter plates (Costar, Arlington, VA, USA) and repeated three times. In the initial screening phase (Table 1, Table 2 and Table S1), peptide solutions of 1, 10, and 100 μM (final concentration) were tested against A. baumannii RUH875 and S. aureus JAR060131 in RPMI and in 50% plasma. After this selection process, two lead candidates, their RI variants, and reference peptides were tested with a final concentration range of 0.12 to 120 µM (two-fold dilutions) in RPMI and in 50% plasma (Table 3). The peptides were also tested against ESKAPE pathogens, with Synthetic Antimicrobial and Antibiofilm Peptide (SAAP)-148 as a reference peptide (Table 4).RPMI or 50% plasma served as no-treatment controls. After 2 and 18 h of incubation at 37 °C with shaking at 120 rpm in a humidified environment, the numbers of viable bacteria were quantified. Bactericidal activity was expressed as the lethal concentration 99.9% (LC99.9), defined as the lowest peptide concentration that killed ≥99.9% of bacteria within 2 h (LC99.9_2h) or 18 h (LC99.9_18h) compared to the initial inoculum.

The subject of a further assay is MDR ESKAPE pathogens. Kind of assay: Bactericidal activity (LC99.9), statements for the whole panel. The format is cell-based. The method, then:
as §1, §2

For assay [1], the system named is S. aureus JAR060131. Kind of assay: SYTOX Green membrane permeabilization assay. In kind it is cell-based, Staphylococcus aureus. How it is done: Control samples were exposed to RPMI only. As a positive control, heat-killed bacteria were incubated at 95 °C for 10 min to induce maximum membrane permeabilization. Fluorescence (excitation: 485 nm, emission: 520 nm) was monitored every minute for 90 min at 37 °C using a […] plate reader (Ortenberg, Germany), with peptides and positive controls added after the third cycle. Background fluorescence (SYTOX Green alone) was subtracted from all values. All assays were performed in triplicate and repeated twice independently.

The next assay relates to A. baumannii RUH875. In kind it is cell-based. How it is done: as §1, §2
A further assay concerns E. coli LUH15117. In kind it is cell-based. How it is done:
as §1, §2

The subject of another assay is E. faecium LUH15122. The format is cell-based. How it is done: as §1, §2
The subject of another assay is K. pneumoniae LUH15104. In kind it is cell-based. The method, then: as §1, §2
For a further assay, the system named is P. aeruginosa LUH15103. The format is cell-based. The method, then: as §1, §2
The test system of assay [2] is S. aureus JAR060131. The format is cell-based. How it is done:
as §1, §2

A further assay has as its system S. aureus LUH14616. The format is cell-based. The method, then:
as §1, §2

Assay [3] concerns S. aureus JAR060131. The conditions noted are these: 1.88 μM. The method, then: Bacteria incubated in PBS alone served as no-treatment controls. At five time points (1, 2, 5, 30, and 120 min), duplicate 50 µL samples were taken and immediately mixed with 50 µL of 0.05% (v/v) sodium polyanethol sulfonate (SPS; Sigma-Aldrich) in PBS to neutralize residual peptide activity. The number of viable bacteria was quantified by plating 10 µL aliquots of serial 10-fold dilutions onto sheep blood agar plates. Colonies were counted after 24 h of incubation at 37 °C.

For “Ac-LKRVWKRVFKLLKRYWRQLKKPVR-NH2 (N-terminus and C-terminus assumed) [SAAP-148, reference compound]”, in the assay with E. cloacae LUH15114 (50% plasma vs RPMI, 18 h), the “E. cloacae eradicated at lower concentrations in plasma” value came out at 4 fold. In the assay with MDR ESKAPE pathogens (50% plasma vs RPMI, 18 h, except E. cloacae, A. baumannii, K. pneumoniae), the “Reduction in activity in plasma after 18 h” value lay in the range of 8 to 16 fold. In the assay with S. aureus JAR060131 [1] (RPMI, 1 μM SYTOX Green, 90 min, 37 °C), the “Concentrations causing rapid rise in SYTOX fluorescence, S. aureus” value lay within 0.23 to 1.88 µM.

Regarding Ac-KRWVKILKKVWRFL-NH2 [GDST-045], the “LC99.9 A. baumannii RUH875 50% Plasma 2 h” value in the assay with A. baumannii RUH875 (RUH875, 2 h) worked out at 1.88 µM. In addition, the “LC99.9 A. baumannii RUH875 50% Plasma 18 h” value in the assay with A. baumannii RUH875 (RUH875, 18 h) is 0.94 µM. For the same substance, in the assay on E. cloacae LUH15114 (LUH15114, 2 h), the “LC99.9 E. cloacae LUH15114 50% Plasma 2 h” value is given as 60 µM and the “LC99.9 E. cloacae LUH15114 RPMI 2 h” value is listed as 1.88 µM. Further, in the assay with E. cloacae LUH15114 (LUH15114, 18 h), the “LC99.9 E. cloacae LUH15114 50% Plasma 18 h” value is recorded as 30 µM and the “LC99.9 E. cloacae LUH15114 RPMI 18 h” value amounted to 1.88 µM. For the same substance, in the assay with E. coli LUH15117 (LUH15117, 2 h), the “LC99.9 E. coli LUH15117 RPMI 2 h” value is listed as 0.94 µM. Further, the “LC99.9 E. coli LUH15117 RPMI 18 h” value with E. coli LUH15117 (LUH15117, 18 h) was found to be 0.94 µM. Moreover, in the assay on E. faecium LUH15122 (LUH15122, 2 h), the “LC99.9 E. faecium LUH15122 50% Plasma 2 h” value was found to be 0.94 µM and the “LC99.9 E. faecium LUH15122 RPMI 2 h” value was 0.94 µM. In addition, in the assay on E. faecium LUH15122 (LUH15122, 18 h), the “LC99.9 E. faecium LUH15122 50% Plasma 18 h” value is on record as 3.75 µM and the “LC99.9 E. faecium LUH15122 RPMI 18 h” value came out at 0.94 µM. In the assay on K. pneumoniae LUH15104 (LUH15104, 2 h), the “LC99.9 K. pneumoniae LUH15104 50% Plasma 2 h” value amounted to 15 µM and the “LC99.9 K. pneumoniae LUH15104 RPMI 2 h” value turned out to be 0.94 µM. Also, in the assay on K. pneumoniae LUH15104 (LUH15104, 18 h), the “LC99.9 K. pneumoniae LUH15104 50% Plasma 18 h” value was determined as 7.5 µM and the “LC99.9 K. pneumoniae LUH15104 RPMI 18 h” value was found to be 1.88 µM. Moreover, in the assay with P. aeruginosa LUH15103 (LUH15103, 2 h), the “LC99.9 P. aeruginosa LUH15103 50% Plasma 2 h” value came to 60 µM and the “LC99.9 P. aeruginosa LUH15103 RPMI 2 h” value came out at 1.88 µM. Also, in the assay on P. aeruginosa LUH15103 (LUH15103, 18 h), the “LC99.9 P. aeruginosa LUH15103 50% Plasma 18 h” value came out at 30 µM and the “LC99.9 P. aeruginosa LUH15103 RPMI 18 h” value came to 3.75 µM. Also, in the assay with S. aureus JAR060131 [2] (JAR060131, 2 h), the “LC99.9 S. aureus JAR060131 50% Plasma 2 h” value is given as 3.75 µM and the “LC99.9 S. aureus JAR060131 RPMI 2 h” value is given as 0.94 µM. The “LC99.9 S. aureus JAR060131 50% Plasma 18 h” value in the assay with S. aureus JAR060131 [2] (JAR060131, 18 h) turned out to be 1.88 µM. Besides, in the assay on S. aureus LUH14616 (LUH14616, 2 h), the “LC99.9 S. aureus LUH14616 50% Plasma 2 h” value was 15 µM and the “LC99.9 S. aureus LUH14616 RPMI 2 h” value amounted to 0.94 µM. In the assay with S. aureus LUH14616 (LUH14616, 18 h), the “LC99.9 S. aureus LUH14616 50% Plasma 18 h” value turned out to be 1.88 µM and the “LC99.9 S. aureus LUH14616 RPMI 18 h” value is given as 0.94 µM. Also, the “Concentrations killing ESKAPE pathogens in 50% plasma within 2 h” value with MDR ESKAPE pathogens (50% plasma, 2 h, range over species) fell in the range of 0.94 to 120 µM. Also, the “Concentrations killing ESKAPE pathogens in 50% plasma after 18 h” value in the assay with MDR ESKAPE pathogens (50% plasma, 18 h, range over species) fell in the range of 0.94 to 30 µM. In the assay on MDR ESKAPE pathogens (RPMI, 2 h, range over species), the “Concentrations killing ESKAPE pathogens in RPMI within 2 h” value lay within 0.94 to 15 µM. Besides, in the assay with S. aureus JAR060131 [3], the “Time to complete killing of S. aureus” value is no more than 2 min. Besides, in the assay on S. aureus JAR060131 [1] (at both sublethal and lethal concentrations), the “Time to rise in SYTOX fluorescence intensity after peptide addition, S. aureus” value is reported as no more than 1 min.
